The values that follow are results of earlier work, collected in US7435725B2, “Oral compositions and methods for prevention, reduction and treatment of radiation injury” (The Quigly Corporation, priority 2001, dated 2008).

Series [1] relates to E. coli B/r WP2 trp-.
For series [2], the system named is Salmonella Typhimurium TA98 and TA 1538. The conditions noted are these: Trp-P-2 (3-amino-1-methyl-5H-pyrido(4,3-b)indole).

As for `O=C(O)C[CH2][Ge](=[O])[O][Ge](=[O])[CH2]CC(=O)O` [Ge-132], the “reduction of mutations due to γ-radiation” value in series [1] was “twenty-fold”. For `[Ge+4].[O-2].[O-2]` [Germanium oxide], the “reduction of mutation rate induced by Trp-P-2” value in series [2] is 40-67 folds.
